# Measurements published in paper PMC5466822 (Organic & biomolecular chemistry, 2016).
# Columns and labels:
# p97 [1] = molecular target: T1, p97 (Homo sapiens, UniProt P55072); experiment: malachite green ATPase assay, dose-response; type: biochemical
# p97 [2] = molecular target: T1, p97; experiment: malachite green ATPase assay, 9-point dose-response; type: biochemical
# T1 sequence (P55072 2-806): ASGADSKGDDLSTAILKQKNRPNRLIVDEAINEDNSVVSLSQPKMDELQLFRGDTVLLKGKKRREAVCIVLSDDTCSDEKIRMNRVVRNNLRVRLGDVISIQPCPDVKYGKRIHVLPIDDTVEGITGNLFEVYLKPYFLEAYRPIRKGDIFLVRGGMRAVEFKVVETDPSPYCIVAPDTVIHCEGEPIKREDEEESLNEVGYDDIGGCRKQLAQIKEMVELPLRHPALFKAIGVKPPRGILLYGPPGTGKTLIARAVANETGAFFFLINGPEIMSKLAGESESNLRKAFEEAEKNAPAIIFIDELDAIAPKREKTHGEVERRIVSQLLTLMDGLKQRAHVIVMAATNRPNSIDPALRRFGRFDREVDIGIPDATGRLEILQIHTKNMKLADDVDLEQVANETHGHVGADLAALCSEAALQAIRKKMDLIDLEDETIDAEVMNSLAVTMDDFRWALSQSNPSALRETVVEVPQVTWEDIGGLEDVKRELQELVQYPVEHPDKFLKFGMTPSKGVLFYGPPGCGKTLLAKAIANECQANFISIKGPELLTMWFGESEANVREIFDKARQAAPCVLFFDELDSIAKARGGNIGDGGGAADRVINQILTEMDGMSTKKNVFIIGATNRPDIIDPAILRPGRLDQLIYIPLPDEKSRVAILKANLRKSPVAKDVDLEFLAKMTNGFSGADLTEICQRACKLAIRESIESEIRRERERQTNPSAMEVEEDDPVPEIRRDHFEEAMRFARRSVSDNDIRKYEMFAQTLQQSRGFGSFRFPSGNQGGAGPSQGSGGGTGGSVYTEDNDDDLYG
Structure (SMILES),IC50 (p97 [1]) [µM],IC50 (p97 [2]) [µM]
"C[C@H]1CCC/C=C/C(=O)c2c(cc(O)c(Cl)c2O)CC(=O)O1 [compound 3, 6-chloro-10(11)-dehydrocurvularin]",24.3,
"C[C@H]1CCC/C=C/C(=O)c2c(O)c(Cl)c(O)c(Cl)c2CC(=O)O1 [compound 4, 4,6-dichloro-10(11)-dehydrocurvularin]",13.9,
"C[C@H]1CCC/C=C/C(=O)c2c(O)cc(O)cc2CC(=O)O1 [compound 2, 10(11)-dehydrocurvularin]",,15.3 ± 9.9
